# Data: patent publication US6737383B1, “Herbicidal oxadiazolidines” (priority 1999, dated 2004)
# Assays:
# rape = test: Test B pre/postemergence rape; type: in vivo, Brassica napus
# Method in brief: (§1)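 Response is a visual 0-to-10 score relative to untreated plants, where 0 means no effect and 10 means complete control, taken twelve to sixteen days after application. Treatments went onto soil at planting and onto foliage of 1- to 4-leaf plants, using a surfactant-containing non-phytotoxic solvent.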
# crabgrass = test: Test B pre/postemergence crabgrass; type: in vivo, Digitaria sanguinalis
# Method in brief: as §1
# smallflower flatsedge = test: Test B flood test smallflower flatsedge; type: in vivo, Cyperus difformis
# Method in brief: (§2)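 Each value is a visual injury score relative to controls, with 10 meaning complete control and 0 no effect. Evaluation took place twelve to sixteen days after the 2-leaf-stage plants were treated and kept in the greenhouse.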
# giant foxtail = test: Test B pre/postemergence giant foxtail; type: in vivo, Setaria faberii
# Method in brief: as §1
# wheat = test: Test B pre/postemergence wheat; type: in vivo, Triticum aestivum
# Method in brief: as §1
# blackgrass = test: Test B pre/postemergence blackgrass; type: in vivo, Alopecurus myosuroides
# Method in brief: as §1
# velvetleaf = test: Test B pre/postemergence velvetleaf; type: in vivo, Abutilon theophrasti
# Method in brief: as §1
# purple nutsedge = test: Test B pre/postemergence purple nutsedge; type: in vivo, Cyperus rotundus
# Method in brief: as §1
# soybean = test: Test B pre/postemergence soybean; type: in vivo, Glycine max
# Method in brief: as §1
# cocklebur = test: Test B pre/postemergence cocklebur; type: in vivo, Xanthium strumarium
# Method in brief: as §1
# wild oat = test: Test B pre/postemergence wild oat; type: in vivo, Avena fatua
# Method in brief: as §1
# sugar beet = test: Test B pre/postemergence sugar beet; type: in vivo, Beta vulgaris
# Method in brief: as §1
# morningglory = test: Test B pre/postemergence morningglory; type: in vivo, Ipomoea hederacea
# Method in brief: as §1
# corn = test: Test B pre/postemergence corn; type: in vivo, Zea mays
# Method in brief: as §1
# duck salad = test: Test B flood test duck salad; type: in vivo, Heteranthera limosa
# Method in brief: as §2
# surinam grass = test: Test B pre/postemergence surinam grass; type: in vivo, Brachiaria decumbens
# Method in brief: as §1
# [1] = Preemergence, Rate 62 g/ha, scale of 0 to 10 where 0 is no effect and 10 is complete control
# [2] = Preemergence, Rate 250 g/ha, scale of 0 to 10 where 0 is no effect and 10 is complete control
# [3] = Preemergence, Rate 500 g/ha, scale of 0 to 10 where 0 is no effect and 10 is complete control
# [4] = Rate 125 g/ha, Postemergence, scale of 0 to 10 where 0 is no effect and 10 is complete control
# [5] = Rate 125 g/ha, Preemergence, scale of 0 to 10 where 0 is no effect and 10 is complete control
# [6] = Rate 250 g/ha, Postemergence, scale of 0 to 10 where 0 is no effect and 10 is complete control
# [7] = Rate 500 g/ha, Postemergence, scale 0 to 10, 0 no effect, 10 complete control
# [8] = Pre-emergence, Rate 1000 g/ha, scale 0 to 10 (0 no effect, 10 complete control)
# [9] = Rate 62 g/ha, headed Pre-emergence (flood test species), scale 0 to 10 (0 no effect, 10 complete control)
# [10] = Rate 125 g/ha, Pre-emergence, flood test species, scale 0 to 10 where 0 is no effect and 10 is complete control
# [11] = Rate 250 g/ha, Pre-emergence, flood-test species, scale 0 to 10, 0 is no effect, 10 is complete control
# [12] = Rate 500 g/ha, Pre-emergence, flood test species, scale 0 to 10 (0 no effect, 10 complete control)
# [13] = Rate 2000 g/ha, Pre-emergence (as headed), scale 0 to 10
# [14] = Rate 62 g/ha, Postemergence, scale of 0 to 10 where 0 is no effect and 10 is complete control
compound,measurement,setting,value
CCN(C(=O)n1oc(=O)n(N(C)C)c1=O)C1CCCCC1 [Compound 274],Rape plant response rating,rape; [1],0
same,Rape plant response rating,rape; [2],0
same,"Plant response rating, Rape",rape; [3],0
same,Rape plant response rating,rape; [4],0
same,Rape plant response rating,rape; [5],0
same,"Plant response rating, Rape",rape; [6],0
same,Rape plant response rating,rape; [7],0
same,Crabgrass plant response rating,crabgrass; [1],0
same,Crabgrass plant response rating,crabgrass; [2],1
same,"Plant response rating, Crabgrass",crabgrass; [3],5
same,Crabgrass plant response rating,crabgrass; [4],0
same,Crabgrass plant response rating,crabgrass; [5],0
same,"Plant response rating, Crabgrass",crabgrass; [6],0
same,Crabgrass plant response rating,crabgrass; [7],0
same,S. Flatsedge plant response rating,smallflower flatsedge; [8],0
same,S. Flatsedge plant response rating,smallflower flatsedge; [9],0
same,S. Flatsedge plant response rating,smallflower flatsedge; [10],0
same,S. Flatsedge plant response rating,smallflower flatsedge; [11],0
same,S. Flatsedge plant response rating,smallflower flatsedge; [12],0
same,S. Flatsedge plant response rating,smallflower flatsedge; [13],0
same,Giant foxtail plant response rating,giant foxtail; [1],0
same,Giant foxtail plant response rating,giant foxtail; [2],6
same,"Plant response rating, Giant foxtail",giant foxtail; [3],9
same,Giant foxtail plant response rating,giant foxtail; [4],0
same,Giant foxtail plant response rating,giant foxtail; [5],3
same,"Plant response rating, Giant foxtail",giant foxtail; [6],0
same,Giant foxtail plant response rating,giant foxtail; [7],0
same,Wheat plant response rating,wheat; [1],0
same,Wheat plant response rating,wheat; [2],0
same,"Plant response rating, Wheat",wheat; [3],0
same,Wheat plant response rating,wheat; [4],0
same,Wheat plant response rating,wheat; [5],0
same,"Plant response rating, Wheat",wheat; [6],0
same,Wheat plant response rating,wheat; [7],0
same,Blackgrass plant response rating,blackgrass; [1],0
same,Blackgrass plant response rating,blackgrass; [2],0
same,"Plant response rating, Blackgrass",blackgrass; [3],0
same,Blackgrass plant response rating,blackgrass; [14],0
same,Blackgrass plant response rating,blackgrass; [4],0
same,Blackgrass plant response rating,blackgrass; [5],0
same,"Plant response rating, Blackgrass",blackgrass; [6],0
same,Blackgrass plant response rating,blackgrass; [7],0
same,Velvetleaf plant response rating,velvetleaf; [1],0
same,Velvetleaf plant response rating,velvetleaf; [2],0
same,"Plant response rating, Velvetleaf",velvetleaf; [3],0
same,Velvetleaf plant response rating,velvetleaf; [4],0
same,Velvetleaf plant response rating,velvetleaf; [5],0
same,"Plant response rating, Velvetleaf",velvetleaf; [6],0
same,Velvetleaf plant response rating,velvetleaf; [7],0
same,Nutsedge plant response rating,purple nutsedge; [1],0
same,Nutsedge plant response rating,purple nutsedge; [2],0
same,"Plant response rating, Nutsedge",purple nutsedge; [3],0
same,Nutsedge plant response rating,purple nutsedge; [4],0
same,Nutsedge plant response rating,purple nutsedge; [5],0
same,"Plant response rating, Nutsedge",purple nutsedge; [6],0
same,Nutsedge plant response rating,purple nutsedge; [7],0
same,Soybean plant response rating,soybean; [1],0
same,Soybean plant response rating,soybean; [2],0
same,"Plant response rating, Soybean",soybean; [3],0
same,Soybean plant response rating,soybean; [4],3
same,Soybean plant response rating,soybean; [5],0
same,"Plant response rating, Soybean",soybean; [6],5
same,Soybean plant response rating,soybean; [7],5
same,Cocklebur plant response rating,cocklebur; [1],0
same,Cocklebur plant response rating,cocklebur; [2],0
same,"Plant response rating, Cocklebur",cocklebur; [3],0
same,Cocklebur plant response rating,cocklebur; [14],0
same,Cocklebur plant response rating,cocklebur; [4],0
same,Cocklebur plant response rating,cocklebur; [5],0
same,"Plant response rating, Cocklebur",cocklebur; [6],0
same,Cocklebur plant response rating,cocklebur; [7],0
same,Wild oats plant response rating,wild oat; [1],0
same,Wild oats plant response rating,wild oat; [2],0
same,"Plant response rating, Wild oats",wild oat; [3],0
same,Wild oats plant response rating,wild oat; [4],0
same,"Plant response rating, Wild oats",wild oat; [6],0
same,Wild oats plant response rating,wild oat; [7],0
same,Sugarbeets plant response rating,sugar beet; [1],0
same,Sugarbeets plant response rating,sugar beet; [2],0
same,"Plant response rating, Sugarbeets",sugar beet; [3],0
same,Sugarbeets plant response rating,sugar beet; [4],0
same,Sugarbeets plant response rating,sugar beet; [5],0
same,"Plant response rating, Sugarbeets",sugar beet; [6],0
same,Sugarbeets plant response rating,sugar beet; [7],1
same,Morningglory plant response rating,morningglory; [1],0
same,Morningglory plant response rating,morningglory; [2],0
same,"Plant response rating, Morningglory",morningglory; [3],0
same,Morningglory plant response rating,morningglory; [4],0
same,Morningglory plant response rating,morningglory; [5],0
same,"Plant response rating, Morningglory",morningglory; [6],0
same,Morningglory plant response rating,morningglory; [7],0
same,Corn plant response rating,corn; [1],0
same,Corn plant response rating,corn; [2],0
same,"Plant response rating, Corn",corn; [3],0
same,Corn plant response rating,corn; [14],0
same,Corn plant response rating,corn; [4],0
same,Corn plant response rating,corn; [5],0
same,"Plant response rating, Corn",corn; [6],0
same,Corn plant response rating,corn; [7],0
same,Ducksalad plant response rating,duck salad; [8],0
same,Ducksalad plant response rating,duck salad; [9],0
same,Ducksalad plant response rating,duck salad; [10],0
same,Ducksalad plant response rating,duck salad; [11],0
same,Ducksalad plant response rating,duck salad; [12],0
same,Ducksalad plant response rating,duck salad; [13],0
same,B. signalgrass plant response rating,surinam grass; [1],0
same,B. signalgrass plant response rating,surinam grass; [2],0
same,"Plant response rating, B. signalgrass",surinam grass; [3],0
same,B. signalgrass plant response rating,surinam grass; [14],0
same,B. signalgrass plant response rating,surinam grass; [4],0
same,B. signalgrass plant response rating,surinam grass; [5],0
same,"Plant response rating, B. signalgrass",surinam grass; [6],0
same,B. signalgrass plant response rating,surinam grass; [7],0
